Laboratory results from US20250236901A1, “METHOD OF DETECTING A MICROORGANISM HAVING HIPPURICASE ACTIVITY” (BIOSYNTH AG, priority 2022, published 2025).

Assays:
Assay type in all cases: cell-based
[1] = system: catalase-positive samples (Campylobacter); assay: Catalase control experiment: chromogenic reaction of p-hydroxybenzoic acid with 4-AAP/HRP/H2O2 in presence of cells; conditions: 1 mM 4-HBA, 0.5 mM 4-AAP, 4.5 U/mL HRP, 1 mM H2O2; OD600 0.4 to 0.5; FIG. 2B, FIG. 9
Protocol: In a catalase control experiment, biomass of colonies was suspended in sterile phosphate buffer (100 mM, pH 7.4) and the optical density OD was determined and then serially diluted with the same buffer to an OD600 of 0.4 to 0.5.
One hundred to 150 μL of cell suspension were mixed with 50 to 100 μL of 100 mM phosphate puffer pH 7.4 and 50 μL of the prepared mixture (5×) 4-aminoantipyrine (4-AAP, Merck 06800, 2.5 mM), peroxidase (HRP, Merck 77332, 22.5 U/mL) and 4-hydroxybenzoic acid (4-HBA, Merck H20059, 5 mM, dissolved in 100 mM phosphate puffer pH 7.4) and 5 μL of 50 mM H2O2 were added. The absorbance at 505 nm was recorded with a plate reader (SpektraMax M5, Molecular Devices) at room temperature. Final concentrations for the assay are 1 mM 4-HBA, 0.5 mM 4-AAP, 4.5 U/mL HRP and 1 mM H2O2. (FIG. 2B)
Two hundred μL of cell suspension were mixed with 20 μL of 100 mM phosphate puffer pH 7.4, 5 μL 50 mM and p-4-hydroxybenzoic acid (p-HBA, Merck H20059 dissolved in 100 mM phosphate puffer pH 7.4), 20 μL of mixture 4-aminoantipyridine (Merck 06800, 6.25 mM) and horseradish peroxidase (Merck 77332, 56.3 U/mL), followed by the addition of 5 μL of 50 mM H2O2. The absorbance at 505 nm was recorded with a plate reader (SpektraMax M5, Molecular Devices) at room temperature. Final concentrations for the assay are 1 mM p-4-HBA, 0.5 mM 4-AAP, 4.5 U/mL HRP and 1 mM H2O2. (FIG. 9)

[2] = system: Campylobacter jejuni DSM 4688; assay: Detection of hippuricase activity with 4-HHA, 4-aminoantipyrine and oxidizing reagent (color / absorbance at 505 nm); conditions: for time to plateau of absorbance at 505 nm: HRP/H2O2
Protocol: (§1) Campylobacter jejuni DSM 4688 (C. j., catalase positive), Eschericha coli (E. coli, catalase positive) and Campylobacter coli DSM 4689 (C. c., catalase positive), Streptococcus agalactiae ATCC®12386 (S. a., catalase negative) and Streptococcus pyogenes ATCC®19615 (S. p., catalase negative) were cultivated on Columbia Agar with sheep blood (Thermofischer PB5039A) at 37° C. for 48 h, both Campylobacter strains were cultivated under microaerophilic atmosphere (Oxoid, Campylgen CN0025A).
(§2) Biomass of colonies were suspended in sterile phosphate buffer (100 mM, pH 7.4) and the optical density OD was determined and set to OD600 of 0.9.
(§3) Two hundred μL of cell suspensions were mixed with 25 μL of 4-hydroxyhippuric acid (4-HHA, Bachem, 4005059) stock solution, prepared in 100 mM phosphate buffer pH adjusted to 7.4 in a microtiter plate (SpektraMax M5, Molecular Devices) and incubated for 70 minutes at 37° C. After incubation, 20 μL of a prepared mixture (12.5×) 4-aminoantipyrine (4-AAP, Merck 06800) and peroxidase (HRP, Merck 77332) and 5 μL of 100 mM H2O2 were added. The absorbance at 505 nm was recorded with a plate reader at room temperature. Final concentrations for the assay were 5 mM, 10 mM and 20 mM 4-HHA, 0.5 mM 4-AAP, 4.5 U/mL HRP and 2 mM H2O2.
(§4) Biomass of colonies were suspended in sterile 100 mM phosphate buffer pH 7.4 and the optical density OD600 was set to 0.9 and then serially diluted with the same buffer to an OD600 of 0.5, 0.2 and 0.1.
(§5) Two hundred μL of cell suspensions were mixed with 25 μL of 100 mM 4-hydroxyhippuric acid (4-HHA, Bachem 4005059) prepared in 100 mM phosphate buffer pH adjusted to 7.4) in a microtiter plate and incubated for 1 h at 37° C. After incubation, 20 μL of the prepared mixture (12.5×) 4-aminoantipyrine (4-AAP, Merck 06800) and peroxidase (HRP, Merck 77332), 5 μL of 100 mM H2O2 were added. The absorbance at 505 nm was recorded with a plate reader (SpektraMax M5, Molecular Devices) at room temperature. Final concentrations for the assay were 10 mM 4-HHA, 0.5 mM 4-AAP, 4.5 U/mL HRP and 2 mM H2O2.
(§6) Biomass of colonies were suspended in sterile phosphate buffer (100 mM, pH 7.4) and the optical density OD was set to 0.9 and then serially diluted with the same buffer to an OD600 of 0.5, 0.2 and 0.1.
(§7) Two hundred μL of cell suspension were mixed with 25 μL of 100 mM 4-hydroxyhippuric acid (4-HHA, Bachem 4005059, dissolved in 100 mM phosphate puffer pH 7.4) in microtiter plate and incubated for 1 h at 37° C. After incubation, 10 μL of the prepared mixture (25×) 4-aminoantipyrine (4-AAP, Merck 06800) and peroxidase (HRP, Merck 77332), 10 μL of 250 mM glucose (Merck, G8270) and 5 μL of glucose oxidase (GOD, Merck G2133) 50 U/mL were added. The absorbance at 505 nm was recorded with a plate reader. Final concentration of 4-HHA was 10 mM, 4-AAP was 0.5 mM, HRP was 4.5 U/mL, glucose was 10 mM and GOD was 1 U/mL.
(§8) Biomass of colonies were suspended, a) 0.2 mL sterile 100 mM phosphate buffer pH 7.4; b) 0.1 mL sterile water (as recommended in manual), c) 0.5 mL saline solution (as recommended in manual). To ensure a proper comparability, the optical density OD600 of all cell suspensions were set to 0.2. In method a) 25 μL of 100 mM 4-hydroxyhippuric acid (4-HHA, Bachem 4005059 prepared in 100 mM phosphate buffer pH adjusted to 7.4) was added to cell suspensions. In methods b) and c), Hippurate disks and Hippurate strips were dropped in cell suspensions as recommended in manual. To ensure a proper comparability, all samples were incubated at 37° C. for 1 h.
After incubation, 10 μL of the prepared mixture (25×) 4-aminoantipyrine (4-AAP, Merck 06800) and peroxidase (HRP, Merck 77332), followed with 5 μL of 100 mM H2O2 were added in samples of method a). Final concentrations for the assay were 10 mM 4-HHA, 0.5 mM 4-AAP, 4.5 U/mL HRP and 2 mM H2O2.

[3] = system: Campylobacter coli DSM 4689; assay: as above
Protocol: as §1, §2, §3, §4, §5, §6, §7
as §8, with “To ensure a proper comparability, all samples were incubated at 37° C. for 1 h.” left out

Eschericha coli = assay: Detection of hippuricase activity with 4-HHA, 4-aminoantipyrine, HRP and H2O2; conditions: Example 1; OD600 0.9; 5, 10, 20 mM 4-HHA, 70 min 37° C.; 0.5 mM 4-AAP, 4.5 U/mL HRP, 2 mM H2O2
Protocol: as §1, §2, §3

[4] = system: Streptococcus agalactiae ATCC®12386; assay: Detection of hippuricase activity with 4-HHA, 4-aminoantipyrine and oxidizing reagent; conditions: Example 6; OD600 0.5-0.6; 10 mM 4-HHA; HRP/H2O2, HRP/Glu/GOD or NaIO4
Protocol: (§9) Streptococcus agalactiae ATCC®12386 and Streptococcus pyogenes ATCC®19615 were cultivated on Columbia Agar with sheep blood (Thermofischer PB5039A) at 37° C. for 48 h.
(§10) Biomass of colonies were suspended in sterile 100 mM phosphate buffer pH 7.4 and the optical density OD600 was set to 0.5-0.6.
as §5, with “incubated for 80 min. at 37°” for “incubated for 1 h at 37°”, “06800) and horseradish peroxidase (HRP,” for “06800) and peroxidase (HRP,”, “at room temperature and endpoint of absorbance at 505 nm was evaluated (FIG. 8A). Final concentrations” for “at room temperature. Final concentrations”
(§11) Two hundred μL of cell suspension were mixed with 25 μL of 100 mM 4-hydroxyhippuric acid (4-HHA, Bachem 4005059, dissolved in 100 mM phosphate puffer pH 7.4) in microtiter plate and incubated for 1 h at 37° C. […] The absorbance at 505 nm was recorded with a plate reader and endpoint of absorbance at 505 nm was evaluated (FIG. 8B). […]

[5] = system: Streptococcus pyogenes ATCC®19615; assay: as above; conditions: Example 6; OD600 0.5-0.6; 10 mM 4-HHA; HRP/H2O2, HRP/Glu/GOD or NaIO4
Protocol: as §9, §10
as §5, with “incubated for 80 min. at 37°” for “incubated for 1 h at 37°”, “06800) and horseradish peroxidase (HRP,” for “06800) and peroxidase (HRP,”, “at room temperature and endpoint of absorbance at 505 nm was evaluated (FIG. 8A). Final concentrations” for “at room temperature. Final concentrations”
as §11

[6] = Example 1, OD600 0.9, 5, 10, 20 mM 4-HHA, 70 min 37° C., 0.5 mM 4-AAP, 4.5 U/mL HRP, 2 mM H2O2

time to plateau of absorbance at 505 nm ([2]; Example 1, FIG. 2A, OD600 0.9) | color of sample [2, 6] | time to plateau of absorbance at 505 nm ([2]; Example 2, FIG. 3, OD600 value of 0.1) | color of sample ([2]; Example 2, OD600 0.1 to 0.9, 10 mM 4-HHA 1 h 37° C., HRP/2 mM H2O2) | color of sample ([2]; Example 3, OD600 0.1 to 0.9, 10 mM 4-HHA 1 h 37° C., HRP, 10 mM glucose, 1 U/mL GOD) | color of sample ([2]; Example 4 method a), OD600 0.2, 10 mM 4-HHA 1 h 37° C., HRP/2 mM H2O2, few minutes at room temperature) | color of sample ([2]; Example 5, OD600 0.1 to 1.1, 10 mM 4-HHA 1 h 37° C., 2 mM 4-AAP, 2 mM NaIO4) | color of sample [4] | color of sample [5] | Compound | time after which the chromogenic reaction stopped (absorbance at 505 nm) [1] | color of sample [3, 6] | color of sample ([3]; Example 2, all OD600 values 0.1 to 0.9, 10 mM 4-HHA 1 h 37° C., HRP/2 mM H2O2) | color of sample ([3]; Example 3, all OD600 values, 10 mM 4-HHA 1 h 37° C., HRP, 10 mM glucose, 1 U/mL GOD) | color of sample ([3]; Example 4 method a), OD600 0.2, 10 mM 4-HHA 1 h 37° C., HRP/2 mM H2O2) | color of sample ([3]; Example 5, all OD600 values, 10 mM 4-HHA 1 h 37° C., 2 mM 4-AAP, 2 mM NaIO4) | color of sample (Eschericha coli)
 |  |  |  |  |  |  |  |  | O=C(O)c1ccc(O)cc1 [p-hydroxybenzoic acid] | about 5 minutes |  |  |  |  |  | 
about 5 minutes | robust red to pink color | about 10 minutes | robust red to pink color | robust red to pink color | significant pink color | red to pink color | pink color | colorless or slightly yellowish | O=C(O)CNC(=O)c1ccc(O)cc1 [4-HHA, p-hydroxyhippuric acid] |  | colorless or slightly yellowish | colorless or slightly yellowish | colorless or slightly yellowish | slightly yellowish | colorless or slightly yellowish | colorless or slightly yellowish
